# Data from publication PMC6930582, “Synthesis and Evaluation of Novel 2H-Benzo[e]-[1,2,4]thiadiazine 1,1-Dioxide Derivatives as PI3Kδ Inhibitors” (Molecules, 2019).
# Entries after “also recorded” stand apart in the source; their conditions may differ. Read-outs that look alike come from different tables or passages of the source.
# Legend:
# PI3Kγ [1] = target: T1, PI3Kγ (Homo sapiens, UniProt P48736); experiment: PI3Kγ kinase assay (ADP-Glo luminescent assay); assay type: biochemical; settings: mean ± SD from two separate experiments
# SU-DHL-6 cells = experiment: SU-DHL-6 cell proliferation assay (CellTiter-Glo); assay type: cell-based, human; settings: for GI50: Homo sapiens, SU-DHL-6 cell growth inhibition, CellTiter-Glo, mean ± SD from two separate experiments; for SU-DHL-6 cell proliferation inhibition (in words): qualitative statement
# Experimental: The selective PI3Kδ inhibitors 15a and 15b were further evaluated for their antiproliferative activity against human B-cell SU-DHL-6.
# Cell proliferation was evaluated by The CellTiter-Glo luminescent cell viability assay (Promega, Shanghai, China) was used to evaluate the inhibitory activity of compounds 15a and 15b following the manufacturer’s protocol. In brief, SU-DHL-6 (ATCC) cells were seeded in 96-well plates (Corning, Los Altos, MA, USA) at density of 1 × 10^4 cells per well, and incubated with medium alone or with the tested compounds at the indicated concentrations (50 μM in DMSO, 3-fold dilution, in duplicate for 10 concentrations). 50 μL CellTiter-Glo (Promega, Shanghai, China) reagent was added to each well to induce cell lysis, and the plate was incubated at room temperature for 10 min to stabilize luminescent signal. After 100 μL of the mixture from each well was transferred to a new 96-well black plate, the […] signal was read on EnVision (Shanghai, China) and the data were analysized by XLFit 4 software (IDBS, Berlin, Germany).
# PI3Kβ [2] = target: T2, PI3Kβ (Homo sapiens, UniProt P42338); experiment: PI3Kβ kinase assay (ADP-Glo luminescent assay); assay type: biochemical; settings: for IC50: ADP-Glo, mean ± SD from two separate experiments
# PI3Kα [3] = target: T3, PI3Kα (Homo sapiens, UniProt P42336); experiment: PI3Kα kinase assay (kinase-Glo luminescent assay); assay type: biochemical; settings: for IC50: kinase-Glo, mean ± SD from two separate experiments
# PI3Kδ = PI3Kδ (Homo sapiens, UniProt O00329); experiment: PI3Kδ kinase assay (ADP-Glo luminescent assay); assay type: biochemical; settings: for IC50: ADP-Glo, mean ± SD from two separate experiments, Table 1 and text, read-out: PI3Kδ inhibitory activity IC50; for PI3Kδ inhibitory activity (in words): qualitative statement; for decrease in PI3Kδ potency on introduction of 7-fluorine: compared with the non-fluorinated analogue
# PI3Kα [4] = target: T3, PI3Kα; set-up: method as in PMID 29601991; settings: quinazolinone leads, previous work; ref [33]; cited from earlier work
# PI3Kγ [5] = target: T1, PI3Kγ; set-up: method as in PMID 29601991; settings: quinazolinone leads, previous work; ref [33]; cited from earlier work
# PI3Kβ [6] = target: T2, PI3Kβ; set-up: method as in PMID 29601991; settings: quinazolinone leads, previous work; ref [33]; cited from earlier work
# T3 sequence (P42336 whole entry): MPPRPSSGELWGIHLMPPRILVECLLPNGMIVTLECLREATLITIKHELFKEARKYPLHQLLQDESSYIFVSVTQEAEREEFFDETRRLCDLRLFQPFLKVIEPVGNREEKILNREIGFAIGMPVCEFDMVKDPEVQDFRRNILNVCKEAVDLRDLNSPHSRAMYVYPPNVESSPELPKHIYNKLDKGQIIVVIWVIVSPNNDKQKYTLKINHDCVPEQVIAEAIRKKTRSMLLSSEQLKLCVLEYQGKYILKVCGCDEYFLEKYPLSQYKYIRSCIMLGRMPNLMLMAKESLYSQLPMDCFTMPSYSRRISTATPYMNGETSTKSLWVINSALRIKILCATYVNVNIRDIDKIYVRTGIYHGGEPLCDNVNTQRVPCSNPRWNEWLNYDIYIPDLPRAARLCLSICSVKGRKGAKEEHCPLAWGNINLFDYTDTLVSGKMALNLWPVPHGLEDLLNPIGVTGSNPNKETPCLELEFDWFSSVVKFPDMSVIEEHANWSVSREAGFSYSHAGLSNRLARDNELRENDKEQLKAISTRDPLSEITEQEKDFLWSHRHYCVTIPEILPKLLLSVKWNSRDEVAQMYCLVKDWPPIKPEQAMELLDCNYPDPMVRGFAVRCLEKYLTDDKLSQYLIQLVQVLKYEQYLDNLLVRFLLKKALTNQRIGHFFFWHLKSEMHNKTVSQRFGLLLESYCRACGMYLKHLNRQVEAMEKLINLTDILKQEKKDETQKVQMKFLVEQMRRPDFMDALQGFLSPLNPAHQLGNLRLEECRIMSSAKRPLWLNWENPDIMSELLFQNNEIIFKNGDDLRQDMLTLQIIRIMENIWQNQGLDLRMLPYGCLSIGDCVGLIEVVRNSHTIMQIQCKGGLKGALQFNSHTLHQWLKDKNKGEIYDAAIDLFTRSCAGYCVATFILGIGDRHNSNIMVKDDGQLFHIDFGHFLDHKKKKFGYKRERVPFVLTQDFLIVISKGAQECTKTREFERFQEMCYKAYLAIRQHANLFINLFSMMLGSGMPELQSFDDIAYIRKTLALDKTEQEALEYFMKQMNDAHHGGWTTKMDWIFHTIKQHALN
# T3 sequence (P27986 whole entry partner): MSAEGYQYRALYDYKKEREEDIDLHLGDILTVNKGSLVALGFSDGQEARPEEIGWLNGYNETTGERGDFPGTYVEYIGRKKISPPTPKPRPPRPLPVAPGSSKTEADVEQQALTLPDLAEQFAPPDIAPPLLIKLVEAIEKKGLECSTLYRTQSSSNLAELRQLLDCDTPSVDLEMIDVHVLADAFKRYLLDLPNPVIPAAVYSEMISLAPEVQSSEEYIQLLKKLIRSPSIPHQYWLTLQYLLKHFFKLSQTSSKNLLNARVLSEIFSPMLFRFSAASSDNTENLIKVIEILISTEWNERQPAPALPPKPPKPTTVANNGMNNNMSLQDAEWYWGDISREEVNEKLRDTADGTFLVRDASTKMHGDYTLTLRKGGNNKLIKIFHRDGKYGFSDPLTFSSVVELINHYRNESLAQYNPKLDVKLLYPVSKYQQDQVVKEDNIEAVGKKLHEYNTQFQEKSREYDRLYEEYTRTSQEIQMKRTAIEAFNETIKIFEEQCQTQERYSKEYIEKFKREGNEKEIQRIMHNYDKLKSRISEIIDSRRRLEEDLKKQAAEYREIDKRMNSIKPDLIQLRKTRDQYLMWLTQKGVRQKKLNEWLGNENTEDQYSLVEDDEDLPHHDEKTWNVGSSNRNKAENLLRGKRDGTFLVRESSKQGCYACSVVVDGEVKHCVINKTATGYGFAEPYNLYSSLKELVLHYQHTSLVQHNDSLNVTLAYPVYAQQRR
# PI3Kδ, sequence (O00329 whole entry): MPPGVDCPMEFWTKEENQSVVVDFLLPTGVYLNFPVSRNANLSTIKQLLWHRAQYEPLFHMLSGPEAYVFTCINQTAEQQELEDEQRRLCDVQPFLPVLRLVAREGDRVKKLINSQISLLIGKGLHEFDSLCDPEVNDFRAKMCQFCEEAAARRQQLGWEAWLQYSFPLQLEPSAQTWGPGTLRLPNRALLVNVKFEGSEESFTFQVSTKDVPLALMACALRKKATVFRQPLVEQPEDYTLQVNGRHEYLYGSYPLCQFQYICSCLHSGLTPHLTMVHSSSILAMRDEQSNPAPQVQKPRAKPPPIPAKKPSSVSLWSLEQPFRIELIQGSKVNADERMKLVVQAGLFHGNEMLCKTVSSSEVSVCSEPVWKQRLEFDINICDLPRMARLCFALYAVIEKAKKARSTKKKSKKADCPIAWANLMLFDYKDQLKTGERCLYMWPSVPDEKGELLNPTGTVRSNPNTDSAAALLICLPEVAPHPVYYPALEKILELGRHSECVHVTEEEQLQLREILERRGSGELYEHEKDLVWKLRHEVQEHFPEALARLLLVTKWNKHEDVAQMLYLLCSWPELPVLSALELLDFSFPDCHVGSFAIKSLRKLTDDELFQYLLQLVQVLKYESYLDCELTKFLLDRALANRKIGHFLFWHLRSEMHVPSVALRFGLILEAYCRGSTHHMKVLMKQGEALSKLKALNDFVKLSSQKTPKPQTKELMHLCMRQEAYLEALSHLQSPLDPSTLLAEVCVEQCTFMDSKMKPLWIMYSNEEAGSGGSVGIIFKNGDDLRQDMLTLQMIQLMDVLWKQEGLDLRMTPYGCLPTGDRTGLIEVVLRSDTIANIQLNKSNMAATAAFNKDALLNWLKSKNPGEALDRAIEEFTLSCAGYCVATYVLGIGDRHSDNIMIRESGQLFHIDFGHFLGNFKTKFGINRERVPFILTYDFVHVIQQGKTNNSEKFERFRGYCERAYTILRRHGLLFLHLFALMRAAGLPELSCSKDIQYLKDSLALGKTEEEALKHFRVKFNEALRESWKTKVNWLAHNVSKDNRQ
# PI3Kδ, sequence (P27986 whole entry partner): as the sequence (P27986 whole entry partner) above
# T1 sequence (P48736 whole entry): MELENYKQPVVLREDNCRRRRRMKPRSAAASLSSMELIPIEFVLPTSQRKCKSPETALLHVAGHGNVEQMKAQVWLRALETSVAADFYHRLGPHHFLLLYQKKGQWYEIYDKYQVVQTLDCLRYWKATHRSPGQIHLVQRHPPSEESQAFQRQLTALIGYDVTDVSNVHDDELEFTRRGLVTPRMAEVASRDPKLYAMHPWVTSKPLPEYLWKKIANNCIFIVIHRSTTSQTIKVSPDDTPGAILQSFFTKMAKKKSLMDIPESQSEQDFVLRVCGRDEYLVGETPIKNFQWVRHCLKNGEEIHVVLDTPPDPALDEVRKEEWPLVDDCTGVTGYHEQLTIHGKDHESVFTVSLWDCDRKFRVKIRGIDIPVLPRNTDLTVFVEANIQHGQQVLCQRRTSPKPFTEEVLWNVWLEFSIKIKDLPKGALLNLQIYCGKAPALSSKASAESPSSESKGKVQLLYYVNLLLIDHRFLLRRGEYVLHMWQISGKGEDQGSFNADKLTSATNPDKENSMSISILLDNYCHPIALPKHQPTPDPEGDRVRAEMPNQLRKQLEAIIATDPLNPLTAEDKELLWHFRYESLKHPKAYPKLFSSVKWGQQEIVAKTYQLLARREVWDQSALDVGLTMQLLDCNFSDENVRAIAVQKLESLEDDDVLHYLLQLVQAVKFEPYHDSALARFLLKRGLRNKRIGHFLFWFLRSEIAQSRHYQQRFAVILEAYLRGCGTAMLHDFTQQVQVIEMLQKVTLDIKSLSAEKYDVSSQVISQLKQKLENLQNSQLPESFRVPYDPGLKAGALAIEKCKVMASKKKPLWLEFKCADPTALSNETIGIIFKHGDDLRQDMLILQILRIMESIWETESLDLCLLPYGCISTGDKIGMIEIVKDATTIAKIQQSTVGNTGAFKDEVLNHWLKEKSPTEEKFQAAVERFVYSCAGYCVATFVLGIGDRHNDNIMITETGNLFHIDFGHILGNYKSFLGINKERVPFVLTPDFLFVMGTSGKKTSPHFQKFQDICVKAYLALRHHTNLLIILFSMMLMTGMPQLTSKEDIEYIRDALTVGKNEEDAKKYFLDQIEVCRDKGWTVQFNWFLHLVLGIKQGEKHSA
# T2 sequence (P42338 whole entry): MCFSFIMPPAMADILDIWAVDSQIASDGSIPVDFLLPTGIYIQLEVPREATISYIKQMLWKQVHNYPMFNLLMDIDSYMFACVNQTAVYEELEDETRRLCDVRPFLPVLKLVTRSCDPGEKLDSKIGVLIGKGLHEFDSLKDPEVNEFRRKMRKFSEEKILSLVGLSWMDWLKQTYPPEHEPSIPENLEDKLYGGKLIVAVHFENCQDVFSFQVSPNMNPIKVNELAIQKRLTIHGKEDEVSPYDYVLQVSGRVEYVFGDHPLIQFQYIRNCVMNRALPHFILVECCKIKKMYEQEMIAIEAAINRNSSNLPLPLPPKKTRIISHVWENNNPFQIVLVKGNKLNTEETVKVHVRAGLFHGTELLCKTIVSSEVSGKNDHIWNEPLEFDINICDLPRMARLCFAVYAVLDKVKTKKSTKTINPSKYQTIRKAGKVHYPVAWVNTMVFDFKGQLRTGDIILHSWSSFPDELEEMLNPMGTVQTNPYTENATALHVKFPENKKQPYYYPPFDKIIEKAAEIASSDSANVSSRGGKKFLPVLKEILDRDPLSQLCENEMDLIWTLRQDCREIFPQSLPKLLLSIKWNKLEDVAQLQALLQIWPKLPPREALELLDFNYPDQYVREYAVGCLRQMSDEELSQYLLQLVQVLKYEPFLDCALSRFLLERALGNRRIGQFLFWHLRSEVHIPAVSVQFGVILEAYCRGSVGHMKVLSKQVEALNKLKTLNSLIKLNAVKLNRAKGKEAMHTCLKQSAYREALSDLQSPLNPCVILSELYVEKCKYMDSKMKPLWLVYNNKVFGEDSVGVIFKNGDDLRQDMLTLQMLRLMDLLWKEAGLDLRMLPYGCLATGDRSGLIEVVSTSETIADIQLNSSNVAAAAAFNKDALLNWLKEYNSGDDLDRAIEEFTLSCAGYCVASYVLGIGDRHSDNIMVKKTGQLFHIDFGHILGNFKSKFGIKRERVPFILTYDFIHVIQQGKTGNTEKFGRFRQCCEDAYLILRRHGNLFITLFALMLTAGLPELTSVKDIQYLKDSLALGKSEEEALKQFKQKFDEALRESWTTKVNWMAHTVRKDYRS
# T2 sequence (P27986 whole entry partner): as the sequence (P27986 whole entry partner) above
IC50 (PI3Kδ) [nM],melting point [°C],SMILES,PI3Kδ inhibitory activity (in words) (PI3Kδ),also measured
217 ± 28,–,"Cc1cccc(C)c1N1C(Cn2nc(-c3ccc4[nH]ccc4c3)c3c(N)ncnc32)=Nc2ccccc2S1(=O)=O [15a, 3-((4-Amino-3-(1H-indol-5-yl)-1H-pyrazolo[3,4-d]pyrimidin-1-yl)methyl)-2-(2,6-dimethylphenyl)-2H-benzo[e][1,2,4]thiadiazine 1,1-dioxide]",–,IC50 (PI3Kγ [1]): > 50000 nM; GI50 (SU-DHL-6 cells): 2130 ± 90 nM; SU-DHL-6 cell proliferation inhibition (in words) (SU-DHL-6 cells): significantly inhibited; also recorded: high antiproliferative potency; IC50 (PI3Kβ [2]): 30600 ± 875 nM; IC50 (PI3Kα [3]): > 50000 nM
266 ± 31,220 to 222,"COc1ccc(-c2nn(CC3=Nc4ccccc4S(=O)(=O)N3c3c(C)cccc3C)c3ncnc(N)c23)cc1OC [15b, 3-((4-Amino-3-(3,4-dimethoxyphenyl)-1H-pyrazolo[3,4-d]pyrimidin-1-yl)methyl)-2-(2,6-dimethylphenyl)-2H-benzo[e][1,2,4]thiadiazine 1,1-dioxide]",–,IC50 (PI3Kγ [1]): 5840 ± 135 nM; GI50 (SU-DHL-6 cells): 2500 ± 110 nM; SU-DHL-6 cell proliferation inhibition (in words) (SU-DHL-6 cells): significantly inhibited; also recorded: high antiproliferative potency; IC50 (PI3Kβ [2]): 24200 ± 495 nM; selectivity for PI3Kδ over PI3Kβ (PI3Kβ [2]; ratio of IC50 values): > 90 fold; IC50 (PI3Kα [3]): 16400 ± 768 nM; selectivity for PI3Kδ over PI3Kα (PI3Kα [3]; ratio of IC50 values): more than 60 fold
> 1000,225 to 226,"Cc1cccc(C)c1N1C(Cn2nc(-c3ccc4c(c3)OCCO4)c3c(N)ncnc32)=Nc2ccccc2S1(=O)=O [15e, 3-((4-Amino-3-(2,3-dihydrobenzo[b][1,4]dioxin-6-yl)-1H-pyrazolo[3,4-d]pyrimidin-1-yl)methyl)-2-(2,6-dimethylphenyl)-2H-benzo[e][1,2,4]thiadiazine 1,1-dioxide]",not tolerated,–
> 1000,> 250,"Cc1cccc(C)c1N1C(Cn2nc(-c3ccc4c(c3)OCO4)c3c(N)ncnc32)=Nc2ccccc2S1(=O)=O [15f, 3-((4-Amino-3-(benzo[d][1,3]dioxol-5-yl)-1H-pyrazolo[3,4-d]pyrimidin-1-yl)methyl)-2-(2,6-dimethyl-phenyl)-2H-benzo[e][1,2,4]thiadiazine 1,1-dioxide]",not tolerated,–
> 1000,–,"COc1ccc(-c2nn(CC3=Nc4ccccc4S(=O)(=O)N3c3c(C)cccc3C)c3ncnc(N)c23)cc1 [15g, 3-((4-Amino-3-(4-methoxyphenyl)-1H-pyrazolo[3,4-d]pyrimidin-1-yl)methyl)-2-(2,6-dimethylphenyl)-2H-benzo[e][1,2,4]thiadiazine 1,1-dioxide]",not tolerated,–
> 1000,–,"COc1cccc(-c2nn(CC3=Nc4ccccc4S(=O)(=O)N3c3c(C)cccc3C)c3ncnc(N)c23)c1 [15h, 3-((4-Amino-3-(3-methoxyphenyl)-1H-pyrazolo[3,4-d]pyrimidin-1-yl)methyl)-2-(2,6-dimethylphenyl)-2H-benzo[e][1,2,4]thiadiazine 1,1-dioxide]",not tolerated,–
> 1000,206 to 207,"Cc1cccc(C)c1N1C(Cn2nc(-c3ccc(OC(F)(F)F)cc3)c3c(N)ncnc32)=Nc2ccccc2S1(=O)=O [15i, 3-((4-Amino-3-(4-(trifluoromethoxy)phenyl)-1H-pyrazolo[3,4-d]pyrimidin-1-yl)methyl)-2-(2,6-dimethyl-phenyl)-2H-benzo[e][1,2,4]thiadiazine 1,1-dioxide]",not tolerated,–
> 1000,–,"Cc1cccc(C)c1N1C(Cn2nc(-c3ccccc3)c3c(N)ncnc32)=Nc2ccccc2S1(=O)=O [15j, 3-((4-Amino-3-phenyl-1H-pyrazolo[3,4-d]pyrimidin-1-yl)methyl)-2-(2,6-dimethylphenyl)-2H-benzo[e]-[1,2,4]thiadiazine 1,1-dioxide]",not tolerated,–
> 1000,132 to 133,"Cc1cccc(C)c1N1C(Cn2nc(-c3ccc4[nH]ccc4c3)c3c(N)ncnc32)=Nc2ccc(F)cc2S1(=O)=O [16a, 3-((4-Amino-3-(1H-indol-5-yl)-1H-pyrazolo[3,4-d]pyrimidin-1-yl)methyl)-2-(2,6-dimethylphenyl)-7-fluoro-2H-benzo[e][1,2,4]thiadiazine 1,1-dioxide]",lost its activity,–
–,–,"CC[C@H](Nc1ncnc2[nH]cnc12)c1nc2cccc(F)c2c(=O)n1-c1ccccc1 [CAL-101, reference compound]",–,GI50 (SU-DHL-6 cells): 39 ± 11 nM
–,–,Cc1cccc(C)c1-n1c(Cn2nc(-c3ccc4[nH]ccc4c3)c3c(N)ncnc32)nc2cccc(F)c2c1=O [compound 3],–,selectivity for PI3Kδ over PI3Kα (PI3Kα [4]): more than 3630 fold; selectivity for PI3Kδ over PI3Kγ (PI3Kγ [5]): > 40 fold; selectivity for PI3Kδ over PI3Kβ (PI3Kβ [6]): > 390 fold
–,–,COc1ccc(-c2nn(Cc3nc4cccc(F)c4c(=O)n3-c3c(C)cccc3C)c3ncnc(N)c23)cc1OC [compound 4],–,selectivity for PI3Kδ over PI3Kα (PI3Kα [4]): more than 1400 fold; selectivity for PI3Kδ over PI3Kγ (PI3Kγ [5]): 7 fold; selectivity for PI3Kδ over PI3Kβ (PI3Kβ [6]): > 820 fold

SMILES,IC50 (PI3Kδ) [nM],melting point [°C],PI3Kδ inhibitory activity (in words) (PI3Kδ),also measured
"COc1ccc(-c2nn(CC3=Nc4ccccc4S(=O)(=O)N3c3c(C)cccc3C)c3ncnc(N)c23)cc1F [15c, 3-((4-Amino-3-(3-fluoro-4-methoxyphenyl)-1H-pyrazolo[3,4-d]pyrimidin-1-yl)methyl)-2-(2,6-dimethyl-phenyl)-2H-benzo[e][1,2,4]thiadiazine 1,1-dioxide]",980 ± 45,–,marginal activity,–
"COc1ccc(-c2nn(CC3=Nc4ccccc4S(=O)(=O)N3c3c(C)cccc3C)c3ncnc(N)c23)cn1 [15d, 3-((4-Amino-3-(6-methoxypyridin-3-yl)-1H-pyrazolo[3,4-d]pyrimidin-1-yl)methyl)-2-(2,6-dimethylphenyl)-2H-benzo[e][1,2,4]thiadiazine 1,1-dioxide]",498 ± 33,–,–,–
"COc1ccc(-c2nn(CC3=Nc4ccc(F)cc4S(=O)(=O)N3c3c(C)cccc3C)c3ncnc(N)c23)cc1OC [16b, 3-((A-amino-3-(3,4-dimethoxyphenyl)-1H-pyrazolo[3,4-d]pyrimidin-1-yl)methyl)-2-(2,6-dimethylphenyl)-7-fluoro-2H-benzo[e][1,2,4]thiadiazine 1,1-dioxide]",518 ± 62,229 to 230,–,decrease in PI3Kδ potency on introduction of 7-fluorine (PI3Kδ): ~2 fold
"COc1ccc(-c2nn(CC3=Nc4ccc(F)cc4S(=O)(=O)N3c3c(C)cccc3C)c3ncnc(N)c23)cc1F [16c, 3-((4-Amino-3-(3-fluoro-4-methoxyphenyl)-1H-pyrazolo[3,4-d]pyrimidin-1-yl)methyl)-2-(2,6-dimethyl-phenyl)-7-fluoro-2H-benzo[e][1,2,4]thiadiazine 1,1-dioxide]",824 ± 76,201 to 202,slight increase in potency,–
"COc1ccc(-c2nn(CC3=Nc4ccc(F)cc4S(=O)(=O)N3c3c(C)cccc3C)c3ncnc(N)c23)cn1 [16d, 3-((4-Amino-3-(6-methoxypyridin-3-yl)-1H-pyrazolo[3,4-d]pyrimidin-1-yl)methyl)-2-(2,6-dimethylphenyl)-7-fluoro-2H-benzo[e][1,2,4]thiadiazine 1,1-dioxide]",823 ± 69,–,–,decrease in PI3Kδ potency on introduction of 7-fluorine (PI3Kδ): ~2 fold
